# Legend:
# [1] = target: T1, arylacetamide deacetylase-like 1 (AADACL1) (Homo sapiens, UniProt Q6PIU2); test: hydrolysis of exogenous HAG in human platelet lysate, blocked by JW480; format: cell-based
# T1 sequence (Q6PIU2 1-408): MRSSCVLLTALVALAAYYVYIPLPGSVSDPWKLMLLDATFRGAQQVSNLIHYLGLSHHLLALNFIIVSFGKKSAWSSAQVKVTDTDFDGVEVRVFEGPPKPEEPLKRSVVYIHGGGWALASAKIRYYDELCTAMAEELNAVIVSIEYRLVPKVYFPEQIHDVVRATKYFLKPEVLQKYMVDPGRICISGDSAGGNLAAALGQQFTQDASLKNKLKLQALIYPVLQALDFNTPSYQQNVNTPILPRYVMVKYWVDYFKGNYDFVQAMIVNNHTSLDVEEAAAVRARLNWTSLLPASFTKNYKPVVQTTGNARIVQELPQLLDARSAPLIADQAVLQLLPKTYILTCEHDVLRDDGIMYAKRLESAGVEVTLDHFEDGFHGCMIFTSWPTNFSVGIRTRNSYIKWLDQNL
# [2] = target: T1, arylacetamide deacetylase-like 1 (AADACL1); test: HAG hydrolysis activity in lysates of JW480-treated human platelets; format: cell-based
Compound,"hydrolysis of exogenous HAG in human platelet lysate, blocked by JW480 [1]",% inhibition at 2 μM [2]
"CCCCCCCCCCCCCCCCOC[C@H](CO)OC(C)=O [HAG, 1-O-hexadecyl-2-O-acetyl-sn-glycerol]",AADACL1 also hydrolyzes HAG to its corresponding monoalkylglycerol ether (C16 MAGE) in human platelets,–
CC(C)c1ccccc1OC(=O)NCCc1ccc2ccccc2c1 [JW480],–,90 ± 0.56% inhibition at 2
